According to US4386103A, “Dichloroamino acid derivatives useful as potent germicidal and fungicidal agents” (Merck & Co., Inc., priority 1981, dated 1983):
One block for each compound: values may come before it.

What was measured:
[1] = Stability of chloroamino acids in pH 4 acetate buffer at 34° C.; assay type: physicochemical; conditions: for half-life: read-out: Stability (t1/2) (converted)
From the text: The effect of this distance on stability in aqueous medium is illustrated in the following table.

Candida albican = experiment: Contact fungicidal screen, Candida albican; assay type: cell-based; conditions: 0.1M NaOAc pH 4.6
Method: (§1) The organisms used in the Contact Fungicidal Screen are a dermatophyte, trychophyton mentagrophytes, frequently associated with athlete's foot; a yeast, Candida albican, causative agent of thrush and vaginitis; a phycomycete, Rhizopus oryzae, commonly known as black bread mold; an ascomycete, Aspergillus fumagatis, found in chicken droppings and causing lung infections; and another dermatophyte, Microsporum canis, which causes ringworm. These organisms are maintained as stock cultures at 4° C. on agar slants of the following composition: dextrose 2%, Neopeptone (Difco) 1%, agar 2%. Fluid medium of the same nutrient composition (without agar) was used to test the viability of the organisms after exposure to the fungicide. This medium is also known as Sabouraud's medium.
The Candida albican is grown in Sabouraud's liquid medium at 25°-30° C. for three days. At the end of the incubation period the cell suspension is centrifuged at 200 G and washed with sterile physiological saline (0.85% NaCl). The density of the cell suspension is determined by counting in a hemacytometer. The suspension is stored a 4° C. until it is used, at which time it is diluted with sterile physiological saline to a density of 5×10^6 cells per ml.
(§2) The compounds are weighed into heat sterilized 100 ml volumetric flasks and immediately before screening dissolved in 0.1 M NaOAc pH 4.6 buffer (test solutions).
(§3) The Aspergillus, Candida, Microsporum and Rhizopus species are screened in a slightly different manner. Basically, the procedure for the Contact Germicidal Efficiency Screen is utilized. After the test solutions are made up, 5 ml aliquots are pipetted into heat sterilized 25 ml glass stoppered erlenmeyer flasks. The screen is initiated when 0.5 ml of the 5×10^6 cell (spore) per ml suspension is added to the flask containing 5 ml of the test solution. At intervals of 0.5, 2.5, 5.0, 10.0 and 15.0 minutes, a 4 mm loopful of the inoculated test solution is subcultured into 7 mL of sterile fluid Sabouraud's medium and mixed on a vortex, the high dilution serving to stop the action of the compound. The subculture tubes are incubated at 25°-30° C. for ten days with daily observation for mycelial growth. The earliest subculture time at which no growth is present is considered the endpoint and is recorded as the sterilization time.
(§4) To insure the viability of the culture, a 0.5 ml aliquot of the 5×10^6 cells (spores) per ml suspension is transferred to 5 ml of the pH 4.6 buffer. A loopful of the inoculated buffer is then subcultured to 7 ml of fluid Sabouraud's medium and incubated at 25°-30° C. for ten days. To insure that the dilution of the test solution into the subculture medium does stop the action, a loopful of the test solution and a loopful of the inoculated buffer are transferred into the same subculture tube. This tube is also incubated at 25°-30° C. for ten days.

Rhizopus oryzae = experiment: Contact fungicidal screen, Rhizopus oryzae; assay type: cell-based; conditions: 0.1M NaOAc pH 4.6
Method: as §1
[…]. The mycelial mat is removed from the surface of the agar using a sterile spatula. It is transferred to a heat sterilized glass tissue grinder and macerated with 25 ml of sterile physiological saline. The suspension is then filtered through sterile glass wool. The density of the sporangia spore suspension is determined by counting in a hemacytometer. The suspension is stored at 4° C. until it was used, at which time it was diluted with sterile physiological saline to a density of 5×10^6 spores per ml.
as §2, §3, §4

Aspergillus fumigatus = experiment: Contact fungicidal screen, Aspergillus fumigatus; assay type: cell-based; conditions: 0.1M NaOAc pH 4.6
Method: (§5) The organisms used in the Contact Fungicidal Screen are a dermatophyte, trychophyton mentagrophytes, frequently associated with athlete's foot; a yeast, Candida albican, causative agent of thrush and vaginitis; a phycomycete, Rhizopus oryzae, commonly known as black bread mold; an ascomycete, Aspergillus fumagatis, found in chicken droppings and causing lung infections; and another dermatophyte, Microsporum canis, which causes ringworm. These organisms are maintained as stock cultures at 4° C. on agar […] of the following composition: dextrose 2%, Neopeptone (Difco) 1%, agar 2%. Fluid medium of the same nutrient composition (without agar) was used to test the viability of the organisms after exposure to the fungicide. This medium is also known as Sabouraud's medium. Sabouraud's agar plate cultures of Aspergillus fumigatus, Microsporum canis, and a different culture of Trychophyton mentagrophytes are prepared by planting an inoculum at the center of an agar plate and incubating at 25°-30° C. for seven to ten days. The mycelial mats are removed from the surface of the agar and prepared in the same manner as the Rhizopus culture. The compounds are weighed into heat sterilized 100 ml volumetric flasks and immediately before screening dissolved in 0.1 M NaOAc pH 4.6 buffer (test solutions). The Aspergillus, Candida, Microsporum and Rhizopus species are screened in a slightly different manner. Basically, the procedure for the Contact Germicidal Efficiency Screen is utilized. After the test solutions are made up, 5 ml aliquots are pipetted into heat sterilized 25 ml glass stoppered erlenmeyer flasks. The screen is initiated when 0.5 ml of the 5×10^6 cell (spore) per ml suspension is added to the flask containing 5 ml of the test solution. […] The subculture tubes are incubated at 25°-30° C. for ten days with daily observation for mycelial growth. The earliest subculture time at which no growth is present is considered the endpoint and is recorded as the sterilization time. To insure the viability of the culture, a 0.5 ml aliquot of the 5×10^6 cells (spores) per ml suspension is transferred to 5 ml of the pH 4.6 buffer. A loopful of the inoculated buffer is then subcultured to 7 ml of fluid Sabouraud's medium and incubated at 25°-30° C. for ten days. To insure that the dilution of the test solution into the subculture medium does stop the action, a loopful of the test solution and a loopful of the inoculated buffer are transferred into the same subculture tube. This tube is also incubated at 25°-30° C. for ten days.

Microsporum canis = experiment: Contact fungicidal screen, Microsporum canis; assay type: cell-based; conditions: 0.1M NaOAc pH 4.6
Method: as §5

[2] = animal tests; cited from earlier work
Gram-negative organisms = conditions: cited from earlier work
pseudomonas organisms = conditions: cited from earlier work
[3] = tested on: Gram-positive and Gram-negative organisms; conditions: cited from earlier work

half-life [1]: 57 days
SMILES: CC(C)(CCC(=O)O)N(Cl)Cl [Z = CH2 CH2]

SMILES: CC(C)(CCCCC(=O)O)N(Cl)Cl [(VI), 6-Dichloroamino-6-methyl-heptanoic acid]
Sterilization Time (Candida albican; 10 PPM): 15 min
Sterilization Time (Candida albican; 100 PPM): 2.5 min
Sterilization Time (Candida albican; 1000 PPM): 0.5 min
Sterilization Time (Rhizopus oryzae; 10 PPM): 15 min
Sterilization Time (Rhizopus oryzae; 100 PPM): 15 min
Sterilization Time (Rhizopus oryzae; 1000 PPM): 15 min
Sterilization Time (Aspergillus fumigatus; 10 PPM): 15 min
Sterilization Time (Aspergillus fumigatus; 100 PPM): 15 min
Sterilization Time (Aspergillus fumigatus; 1000 PPM): 5.0 min
Sterilization Time (Microsporum canis; 10 PPM): 10.0 min
Sterilization Time (Microsporum canis; 100 PPM): 2.5 min
Sterilization Time (Microsporum canis; 1000 PPM): 0.5 min

Stability (in words) [1]: violent decomposition
SMILES: CC(C)(C(=O)O)N(Cl)Cl [Z = nothing]

SMILES: Oc1c(Cl)cc(Cl)c(Cl)c1Cc1c(O)c(Cl)cc(Cl)c1Cl [Hexachlorophene]
neurotoxicity [2]: caused neurotoxicity
activity against Gram-negative organisms (Gram-negative organisms): ineffective against Gram-negative organisms

SMILES: [H]/N=C(\N/C(=N/[H])NCCCCCCNC(=N)NC(=N)Nc1ccc(Cl)cc1)Nc1ccc(Cl)cc1 [Chlorhexidine]
activity against pseudomonas organisms (pseudomonas organisms): not effective against pseudomonas organisms
activity against Gram-positive and Gram-negative organisms [3]: generally effective against Gram-positive and Gram-negative oganisms

half-life [1]: 300 days
SMILES: CC(C)(COC(=O)CCC(=O)O)N(Cl)Cl [drawing 17]

SMILES: CC(C)(CC(=O)O)N(Cl)Cl [Z = CH2]
half-life [1]: 1.21 days
